Data on one compound can be found in ChEMBL document CHEMBL5537110, “SIRT1-dependent mitochondrial biogenesis supports therapeutic effects of 4-butyl-polyhydroxybenzophenone compounds against NAFLD” (Eur J Med Chem, 2023).

Active and inactive are the calls of the source. The rule behind the calls is not given here.

The test concerns HepG2. Description: Induction of SIRT1/PGC1alpha interaction in human HepG2 cells at 5 umol/L by co-immunoprecipitataion analysis. The settings on record: filed as activator, dose 5.0 µmol/L. The class given is cell-based.

As for `CC(C)(C)c1ccc(C(=O)c2ccc(O)c(O)c2)cc1`, the result was Active.
